In brackets after ≈: the same amount, converted by molar mass.
Test system: methicillin-resistant Staphylococcus aureus (MRSA) (ATCC BAA-44)
Test: MIC assay, broth microdilution with resazurin
Assay type: cell-based
Settings: Mueller Hinton broth, 20-44 h at 37° C.
Description: Antimicrobial assay antimicrobial activities of the polymers were determined by the minimal inhibitory concentration (MIC) assay. MIC of Mycobacterium smegmatis (ATCC 700084), Shigella flexneri (ATCC 9199), Staphylococcus aureus (ATCC 14775) and methicillin-resistant Staphylococcus aureus (MRSA) (ATCC BAA-44) were determined by the standard broth microdilution method with slight modification. In brief, different bacteria were grown in either Mueller Hinton broth (MHB) or 7H9 broth (M. smegmatis) overnight at 37° C. Next day, the cells were first OD600 adjusted to 0.1 and then further diluted 1:100 in the respective media and 50 μL (˜10^5 CFU) is added to 96 well-microplate wells containing 50 μL serial dilutions of the polymers. The plates were incubated for 20-44 h at 37° C. MIC is defined as the lowest concentration of the polymer that inhibits the visual growth of the bacteria. To aid in determining the visual growth of bacteria, resazurin, a red-ox dye is added to the wells at a final concentration of 0.02% and incubated for 4-8 h at 37° C. In the presence of viable cells, resazurin (blue) is reduced to resorfurin (pink) along with an increase in fluorescence. MIC was calculated as the lowest concentration of the polymer that prevented the color change and reduced the fluorescence (Ex 540, Em 590 nm) by 90% when compared to the control wells containing no inhibitor. […]

With `O=C(O)c1cn(C2CC2)c2cc(N3CCNCC3)c(F)cc2c1=O` [Ciprofloxacin] the “MIC MRSA” value was 20 µg/mL (≈ 60.4 µM).

Source: patent US10017462B1, “Antimicrobial poly(guanylurea)s” (THE FLORIDA INTERNATIONAL UNIVERSITY BOARD OF TRUSTEES, priority 2018, dated 2018)
